Data as given in ChEMBL document CHEMBL1157451, “Effect of some P-glycoprotein modulators on Rhodamine-123 absorption in guinea-pig ileum” (Bioorg Med Chem Lett, 2008).
pEC50: −log10 of the molar value.

Test: Inhibition of P-glycoprotein-mediated rhodamine 123 absorption in guinea-pig ileum
Format: tissue-based
Conditions: Cavia porcellus

| Compound | pEC50 |
| --- | --- |
| CC/C(=C(\c1ccccc1)c1ccc(OCCN(C)C)cc1)c1ccccc1 [TAMOXIFEN] | 4.40 |
| COc1cccc(CCc2ccccc2OCc2ccccn2)c1 | 4.83 |
